In patent publication US20240270715A1, “INHIBITORS OF TRANSGLUTAMINASES” (ZEDIRA GMBH, priority 2021, published 2024):
Where two headings read alike, the source gives them in different places.

How the values were obtained:
[1] = Log D by shake flask method (octanol / PBS pH 7.4, HPLC); assay type: physicochemical; settings: octanol / PBS pH 7.4, shake flask; read-out: logD
In short: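 Log D is derived by HPLC measurement of how the compound distributes between octanol and pH 7.4 phosphate-buffered saline in a shake flask.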

[2] = Caco-2 permeability assay (CacoReady kit); assay type: in vitro ADME; settings: human
In short: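 Intestinal permeability modelled with kit-supplied Caco-2 barriers, run as the maker specifies; each compound reported as Papp.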

[3] = molecular target: T1, recombinant human transglutaminase 2 (Homo sapiens, UniProt P21980); assay: Transglutaminase assay: incorporation of dansylcadaverine into dimethylcasein (DCC-assay); assay type: biochemical
T1 sequence (P21980 1-687): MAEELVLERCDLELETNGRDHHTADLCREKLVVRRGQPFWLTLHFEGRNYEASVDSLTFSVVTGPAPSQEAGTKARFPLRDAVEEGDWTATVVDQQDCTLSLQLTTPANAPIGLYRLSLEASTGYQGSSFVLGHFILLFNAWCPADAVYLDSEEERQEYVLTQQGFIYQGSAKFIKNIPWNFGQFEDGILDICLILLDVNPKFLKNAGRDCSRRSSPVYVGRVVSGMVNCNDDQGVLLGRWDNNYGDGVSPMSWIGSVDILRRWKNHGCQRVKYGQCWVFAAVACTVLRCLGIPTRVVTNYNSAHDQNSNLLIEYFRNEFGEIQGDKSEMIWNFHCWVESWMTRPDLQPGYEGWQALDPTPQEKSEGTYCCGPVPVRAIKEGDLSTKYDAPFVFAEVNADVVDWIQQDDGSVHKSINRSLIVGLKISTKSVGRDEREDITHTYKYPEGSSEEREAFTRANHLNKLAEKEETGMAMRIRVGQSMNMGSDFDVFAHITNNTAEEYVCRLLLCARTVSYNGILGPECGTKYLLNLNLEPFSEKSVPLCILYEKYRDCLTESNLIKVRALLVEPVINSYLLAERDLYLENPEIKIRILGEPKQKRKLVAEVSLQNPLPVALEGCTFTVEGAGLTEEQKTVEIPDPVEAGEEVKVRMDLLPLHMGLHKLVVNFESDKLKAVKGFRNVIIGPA
In short: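 Recombinant human TG2 (10 nM final) incorporates dansylcadaverine (16.7 μM) into N,N-dimethylcasein (4 μM) in Tris-HCl buffer, pH 8.0, with 10 mM CaCl2 and 10 mM glutathione. Fluorescence (λex 330, λem 500 nm) followed 30 min. The slope between 20–30 min gives activity versus DMSO control, and IC50 comes from the concentration–activity plot.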

[4] = recombinant human TG2 10 nM, dansylcadaverine/dimethylcasein, read-out: IC50 TG2

Row | logD [1] | Papp [2] [×10⁻⁶ cm/s] | IC50 [3, 4] [nM] | IC50 ([3]; DCC-assay, values in text, read-out: IC50) [nM] | fold more potent compared to Ref. 4 ([3]; ratio of IC50, compare table 1) | SMILES
1 | < 1 | < 1 | 150 to 600 |  |  | CCNC(=O)C(=O)CC[C@H](NC(=O)c1cncn1C)C(=O)Nc1cccn(CC(=O)NC23CC4CC(CC(Cl)(C4)C2)C3)c1=O [Compound I-9, (S)-N1-ethyl-N6-(1-(2-(3-chloroadamantane-1-amino)-2-oxoethyl)-2-oxo-1,2-dihydropyridin-3-yl)-5-(1-methyl-1H-imidazole-5-carboxamido)-2-oxohexanediamide]
2 | < 1 | < 1 | 150 to 600 |  |  | CCNC(=O)C(=O)CC[C@H](NC(=O)c1nncs1)C(=O)Nc1cccn(CC(=O)NC23CC(C2)C3)c1=O [Compound I-119, (S)-N1-(1-(2-(bicyclo[1.1.1]pentan-1-ylamino)-2-oxoethyl)-2-oxo-1,2-dihydropyridin-3-yl)-N6-ethyl-5-oxo-2-(1,3,4-thiadiazole-2-carboxamido)hexanediamide]
3 | < 1 | 1 to 10 | < 150 |  |  | CCNC(=O)C(=O)CC[C@H](NC(=O)c1cnnn1C)C(=O)Nc1cccn(CC(=O)NC2C3CC4CC(C3)CC2C4)c1=O (stereo partly drawn) [Compound I-56, (S)-N1-ethyl-N6-(1-(2-(2-adamantylamino)-2-oxoethyl)-2-oxo-1,2-dihydropyridin-3-yl)-5-(1-methyl-1H-1,2,3-triazole-5-carboxamido)-2-oxohexanediamide]
4 | 1 to 3 | 1 to 10 | 150 to 600 |  |  | CCNC(=O)C(=O)CC[C@H](NC(=O)c1c[nH]c2ccccc12)C(=O)Nc1cccn(CC(=O)NC2C3CC4CC(C3)CC2C4)c1=O (stereo partly drawn) [Compound I-95, (S)-N1-ethyl-5-(1H-indole-3-carboxamido)-N6-(1-(2-(2-adamantylamino)-2-oxoethyl)-2-oxo-1,2-dihydropyridin-3-yl)-2-oxohexanediamide]
5 | 3 to 5 | < 1 | 150 to 600 |  |  | CCNC(=O)C(=O)CC[C@H](NC(=O)c1cnsn1)C(=O)Nc1cccn(CC23CC4CC(CC(Br)(C4)C2)C3)c1=O [Compound I-83, (S)-N1-(1-((3-bromo-1-adamantyl)methyl)-2-oxo-1,2-dihydropyridin-3-yl)-N6-ethyl-5-oxo-2-(1,2,5-thiadiazole-3-carboxamido)hexanediamide]
6 | 1 to 3 | < 1 | 600 to 3500 |  |  | CCNC(=O)C(=O)CC[C@H](NC(=O)[C@@H]1CN2CCN1CC2)C(=O)Nc1cccn(CC(=O)NC2C3CC4CC(C3)CC2C4)c1=O (stereo partly drawn) [Compound I-94, (S)-2-((S)-1,4-diazabicyclo[2.2.2]octane-2-carboxamido)-N6-ethyl-N1-(1-(2-(2-adamantylamino)-2-oxoethyl)-2-oxo-1,2-dihydropyridin-3-yl)-5-oxohexanediamide]
7 | < 1 | 1 to 10 | 150 to 600 |  |  | CCNC(=O)C(=O)CC[C@H](NC(=O)c1cn(C)nn1)C(=O)Nc1cccn(CC(=O)N[C@@H]2C[C@H]3CC[C@]2(C)C3(C)C)c1=O [Compound I-75, (S)-N1-ethyl-5-(1-methyl-1H-1,2,3-triazole-4-carboxamido)-2-oxo-N6-(2-oxo-1-(2-oxo-2-((1R,2R,4R)-1,7,7-trimethylbicyclo[2.2.1]heptan-2-ylamino)ethyl)-1,2-dihydropyridin-3-yl)hexanediamide]
8 | < 1 | 1 to 10 | 150 to 600 |  |  | CCNC(=O)C(=O)CC[C@H](NC(=O)c1oc2ccccc2c1CC)C(=O)Nc1cccn(CC(=O)NC23CC(C2)C3)c1=O [Compound I-101, (S)-N1-(1-(2-(bicyclo[1.1.1]pentan-1-ylamino)-2-oxoethyl)-2-oxo-1,2-dihydropyridin-3-yl)-N6-ethyl-2-(3-ethylbenzofuran-2-carboxamido)-5-oxohexanediamide]
9 | 3 to 5 | 1 to 10 | < 150 |  |  | CCNC(=O)C(=O)CC[C@H](NC(=O)c1nc(Br)cs1)C(=O)Nc1cccn(CC(=O)NC2C3CC4CC(C3)CC2C4)c1=O (stereo partly drawn) [Compound I-50, (S)-2-(4-bromothiazole-2-carboxamido)-N6-ethyl-N1-(1-(2-(2-adamantylamino)-2-oxoethyl)-2-oxo-1,2-dihydropyridin-3-yl)-5-oxohexanediamide]
10 | 1 to 3 | < 1 | < 150 |  |  | CCNC(=O)C(=O)CC[C@H](NC(=O)c1cnc(Cl)n1C)C(=O)Nc1cccn(CC(=O)NC23CC4(C)CC(C)(CC(C)(C4)C2)C3)c1=O [Compound I-29, (S)-2-(2-chloro-1-methyl-1H-imidazole-5-carboxamido)-N6-ethyl-N1-(1-(2-(3,5,7-trimethyl-1-adamantylamino)-2-oxoethyl)-2-oxo-1,2-dihydropyridin-3-yl)-5-oxohexanediamide]
11 | < 1 | < 1 | 150 to 600 |  |  | CCNC(=O)C(=O)CC[C@H](NC(=O)[C@H]1CCNC1)C(=O)Nc1cccn(CC(=O)NC2C3CC4CC2CC(F)(C4)C3)c1=O (stereo partly drawn) [Compound I-59, (S)-N1-ethyl-N6-(1-(2-(5-fluoroadamantane-2-amino)-2-oxoethyl)-2-oxo-1,2-dihydropyridin-3-yl)-2-oxo-5-((S)-pyrrolidine-3-carboxamido)hexanediamide]
12 | 1 to 3 | < 1 | 3500 to 10000 | 4270 |  | CCOC(=O)/C=C/CC[C@H](NC(=O)c1cccnc1)C(=O)Nc1ccc(C)n(CC(=O)NCCc2ccccc2)c1=O [Ref. 3, reference compound]
13 | < 1 | < 1 | 600 to 3500 |  |  | CCNC(=O)C(=O)CC[C@H](NC(=O)c1nc(C2(C)CC2)no1)C(=O)Nc1cccn(CC(=O)NC2C3CC4CC2CC(C(N)=O)(C4)C3)c1=O (stereo partly drawn) [Compound I-115, (S)-N1-ethyl-N6-(1-(2-(4-aminoadamantane-1-carboxamide)-2-oxoethyl)-2-oxo-1,2-dihydropyridin-3-yl)-5-(3-(1-methylcyclopropyl)-1,2,4-oxadiazole-5-carboxamido)-2-oxohexanediamide]
14 | < 1 | < 1 | 600 to 3500 |  |  | CCNC(=O)C(=O)CC[C@H](NC(=O)c1coc(S(N)(=O)=O)c1)C(=O)Nc1cccn(CC(=O)NC2C3CC4CC2CC(NC(C)=O)(C4)C3)c1=O (stereo partly drawn) [Compound I-112, (S)-N1-ethyl-N6-(1-(2-(1-acetylamino-4-aminoadamantane)-2-oxoethyl)-2-oxo-1,2-dihydropyridin-3-yl)-2-oxo-5-(5-sulfamoylfuran-3-carboxamido)hexanediamide]
15 | 1 to 3 | < 1 | 150 to 600 |  |  | CCNC(=O)C(=O)CC[C@H](NC(=O)c1cncn1C)C(=O)Nc1cccn(CC(=O)NC23CC4CC(CC(CC)(C4)C2)C3)c1=O [Compound I-5, (S)-N1-ethyl-N6-(1-(2-(3-ethyladamantane-1-amino)-2-oxoethyl)-2-oxo-1,2-dihydropyridin-3-yl)-5-(1-methyl-1H-imidazole-5-carboxamido)-2-oxohexanediamide]
16 | 1 to 3 | < 1 | 150 to 600 |  |  | CCNC(=O)C(=O)CC[C@H](NC(=O)[C@@H]1CCCN1C(C)=O)C(=O)Nc1cccn(CC(=O)NC2C3CC4CC(C3)CC2C4)c1=O (stereo partly drawn) [Compound I-55, (S)-2-((S)-1-acetylpyrrolidine-2-carboxamido)-N6-ethyl-N1-(1-(2-(2-adamantylamino)-2-oxoethyl)-2-oxo-1,2-dihydropyridin-3-yl)-5-oxohexanediamide]
17 | < 1 | < 1 | 600 to 3500 |  | about 15 fold | CCC(CC)CNC(=O)Cn1cccc(NC(=O)[C@H](CCC(=O)C(=O)NC)NC(=O)c2cncn2C)c1=O [Ref. 1, reference compound]
